In patent publication US20240336574A1 (LATIGO BIOTHERAPEUTICS, INC., priority 2021, published 2024):
Like-named read-outs stand apart in the source and are kept apart here.

Target: T1, recombinant human NaV1.8 stably transfected HEK cells (Homo sapiens, UniProt Q9Y5Y9)
T1 construct: expressed in transfected cells; host or cells: HEK cells, stably transfected
Assay: Compound profiling on NaV1.8, human NaV1.8 cell line, SyncroPatch384PE automated patch clamp assay (Example 102, first set of compounds, Table 16)
Type: cell-based
Conditions: human NaV1.8 HEK cells, Table 16 (first set of compounds)
In short: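 IC50s come from two read-outs: resting-state block (P1, 10 mV step from −120 mV) and inactivated-state block (P2, after 10 s at −40 mV), scaled between DMSO and 250 μM tetracaine. Compounds (20–0.001 μM final, 1:3 steps) were applied for 5 min, 15 s sweeps. Cells kept at 30 °C the day before.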

[1] = inactivated state block (P2 measurement), read-out: P2IC50
[2] = resting state block (P1 measurement), read-out: P1IC50

T1 sequence (Q9Y5Y9 whole entry): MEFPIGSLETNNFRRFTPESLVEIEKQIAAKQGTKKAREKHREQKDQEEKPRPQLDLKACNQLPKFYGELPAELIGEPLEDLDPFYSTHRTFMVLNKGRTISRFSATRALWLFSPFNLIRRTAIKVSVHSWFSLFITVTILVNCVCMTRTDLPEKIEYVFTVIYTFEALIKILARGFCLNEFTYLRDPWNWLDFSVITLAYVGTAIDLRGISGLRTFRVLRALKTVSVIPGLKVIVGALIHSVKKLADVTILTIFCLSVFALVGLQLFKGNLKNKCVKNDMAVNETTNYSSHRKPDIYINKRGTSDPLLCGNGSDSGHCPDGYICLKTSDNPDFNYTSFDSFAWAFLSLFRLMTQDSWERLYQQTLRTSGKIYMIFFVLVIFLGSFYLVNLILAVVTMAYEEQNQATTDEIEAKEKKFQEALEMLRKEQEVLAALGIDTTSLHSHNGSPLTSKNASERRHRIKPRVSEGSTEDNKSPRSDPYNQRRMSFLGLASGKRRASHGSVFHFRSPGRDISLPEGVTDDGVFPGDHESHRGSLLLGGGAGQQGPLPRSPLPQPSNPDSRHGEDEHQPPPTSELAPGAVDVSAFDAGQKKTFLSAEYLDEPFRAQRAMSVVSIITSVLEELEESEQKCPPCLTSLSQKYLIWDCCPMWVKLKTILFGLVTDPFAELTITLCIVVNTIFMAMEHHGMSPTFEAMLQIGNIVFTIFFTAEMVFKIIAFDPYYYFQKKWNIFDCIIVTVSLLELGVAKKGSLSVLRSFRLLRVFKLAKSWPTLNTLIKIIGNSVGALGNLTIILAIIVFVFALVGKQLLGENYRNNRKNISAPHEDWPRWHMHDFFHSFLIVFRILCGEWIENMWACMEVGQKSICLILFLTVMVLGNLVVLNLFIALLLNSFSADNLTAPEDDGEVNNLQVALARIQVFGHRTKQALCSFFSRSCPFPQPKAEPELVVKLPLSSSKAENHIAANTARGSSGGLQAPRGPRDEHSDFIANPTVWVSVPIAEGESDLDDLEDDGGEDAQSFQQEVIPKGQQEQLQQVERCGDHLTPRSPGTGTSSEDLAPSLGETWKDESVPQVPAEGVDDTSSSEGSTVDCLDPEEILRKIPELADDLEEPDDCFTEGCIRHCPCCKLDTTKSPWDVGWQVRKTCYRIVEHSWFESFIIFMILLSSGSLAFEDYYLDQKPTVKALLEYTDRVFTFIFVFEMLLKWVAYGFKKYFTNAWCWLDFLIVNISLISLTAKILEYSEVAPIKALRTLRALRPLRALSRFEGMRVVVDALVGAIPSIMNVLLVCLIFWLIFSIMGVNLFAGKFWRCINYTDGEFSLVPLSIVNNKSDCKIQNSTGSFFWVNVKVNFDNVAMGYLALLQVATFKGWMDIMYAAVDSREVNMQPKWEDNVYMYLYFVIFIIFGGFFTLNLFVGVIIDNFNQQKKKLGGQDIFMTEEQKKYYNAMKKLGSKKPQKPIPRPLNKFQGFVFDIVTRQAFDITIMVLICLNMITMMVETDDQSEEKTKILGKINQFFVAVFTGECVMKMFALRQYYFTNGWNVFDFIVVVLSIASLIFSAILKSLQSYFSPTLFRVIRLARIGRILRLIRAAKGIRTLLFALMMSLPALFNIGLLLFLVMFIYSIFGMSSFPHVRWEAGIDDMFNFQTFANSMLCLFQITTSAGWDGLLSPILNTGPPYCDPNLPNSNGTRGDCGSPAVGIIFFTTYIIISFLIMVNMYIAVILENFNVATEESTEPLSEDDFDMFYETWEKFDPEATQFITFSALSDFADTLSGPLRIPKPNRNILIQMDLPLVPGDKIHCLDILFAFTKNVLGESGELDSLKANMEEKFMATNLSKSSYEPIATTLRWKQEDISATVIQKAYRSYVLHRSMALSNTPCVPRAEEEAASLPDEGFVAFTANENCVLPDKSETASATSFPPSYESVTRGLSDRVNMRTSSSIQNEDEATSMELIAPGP

| SMILES | IC50 [1] | IC50 [2] |
| --- | --- | --- |
| CS(=O)(=O)c1cccc(NC(=O)c2cc(C(F)(F)F)cnc2Oc2cc(OC(F)(F)F)ccc2F)c1 [Compound 1658] | 0.04 to 0.2 µM | 0.2 to 0.5 µM |
| CS(=O)(=O)c1cccc(NC(=O)c2cc(C(F)(F)F)cnc2OCC2CC2(F)F)c1 (stereo not drawn) [Compound 1659] | 0.04 to 0.2 µM | 0.04 to 0.2 µM |
| CS(=O)(=O)c1cccc(NC(=O)c2cc(C(F)(F)F)cnc2OC2CCC(F)(F)CC2)c1 [Compound 1660] | 0.04 to 0.2 µM | 0.04 to 0.2 µM |
| CS(=O)(=O)c1cccc(NC(=O)c2cc(C(F)(F)F)cnc2Oc2ccc(OC(F)(F)F)cc2F)c1 [Compound 1661] | ≤ 0.02 µM | ≤ 0.02 µM |
| CS(=O)(=O)c1cccc(NC(=O)c2cc(C(F)(F)F)cnc2OC2CCOC2)c1 (stereo not drawn) [Compound 1662] | 0.2 to 0.5 µM | 0.2 to 0.5 µM |
| CS(=O)(=O)c1cccc(NC(=O)c2cc(C(F)(F)F)cnc2OCC(F)F)c1 [Compound 1663] | 0.2 to 0.5 µM | 0.2 to 0.5 µM |
| CC(C)(O)c1ccc(Oc2ncc(C(F)(F)F)cc2C(=O)Nc2cccc(S(C)(=O)=O)c2)c(F)c1 [Compound 1664] | 0.2 to 0.5 µM | 0.2 to 0.5 µM |
| CS(=N)(=O)c1cccc(NC(=O)c2cc(C(F)(F)F)cnc2OC2CC(C#N)C2)c1 (stereo not drawn) [Compound 1665] | 0.2 to 0.5 µM | 0.2 to 0.5 µM |
| Cc1nc(OC2CCC2)ccc1Oc1ncc(C(F)(F)F)cc1C(=O)Nc1cccc(S(C)(=N)=O)c1 (stereo not drawn) [Compound 1669] | 0.04 to 0.2 µM | 0.04 to 0.2 µM |
| CS(=N)(=O)c1cccc(NC(=O)c2cc(C(F)(F)F)cnc2OC2CC3C(C2)C3(F)F)c1 (stereo not drawn) [Compound 1672] | 0.2 to 0.5 µM | 0.2 to 0.5 µM |
| NC(=O)c1ccc(NC(=O)c2cc(C(F)(F)F)cnc2OC2CC3C(C2)C3(F)F)cc1 (stereo not drawn) [Compound 1673] | 0.2 to 0.5 µM | 0.2 to 0.5 µM |
| CS(=N)(=O)c1cccc(NC(=O)c2cc(C(F)(F)F)cnc2Oc2ccc(C(F)F)nc2)c1 (stereo not drawn) [Compound 1674] | 0.2 to 0.5 µM | 0.2 to 0.5 µM |
| NC(=O)c1cccc(NC(=O)c2cc(C(F)(F)F)cnc2Oc2ccc(C(F)F)nc2)c1 [Compound 1675] | 0.2 to 0.5 µM | 0.2 to 0.5 µM |
| NC(=O)c1ccc(NC(=O)c2cc(C(F)(F)F)cnc2Oc2ccc(C(F)F)nc2)cc1 [Compound 1676] | 0.2 to 0.5 µM | 0.2 to 0.5 µM |
| NC(=O)c1cccc(NC(=O)c2cc(C(F)(F)F)cnc2OC2CC3C(C2)C3(F)F)c1 (stereo not drawn) [Compound 1677] | 0.2 to 0.5 µM | 0.2 to 0.5 µM |
| COC(=O)C12CC(NC(=O)c3cc(C(F)(F)F)cnc3Oc3ccc(C#N)cc3OC)(C1)C2 [Compound 1678] | 0.2 to 0.5 µM | 0.2 to 0.5 µM |
| COC(=O)C12CC(NC(=O)c3cc(C(F)(F)F)cnc3Oc3ccc(F)c(F)c3OC)(C1)C2 [Compound 1679] | 0.2 to 0.5 µM | 0.2 to 0.5 µM |
| COc1c(Oc2ncc(Br)cc2C(=O)Nc2cccc(C(N)=O)c2)ccc(F)c1F [Compound 1680] | 0.02 to 0.04 µM | 0.02 to 0.04 µM |
| COc1c(Oc2ncc(Br)cc2C(=O)Nc2ccnnc2)ccc(F)c1F [Compound 1683] | ≤ 0.02 µM | 0.02 to 0.04 µM |
| Cc1nc(Br)ccc1Oc1ncc(C(F)(F)F)cc1C(=O)Nc1cccc(S(C)(=N)=O)c1 (stereo not drawn) [Compound 1684] | ≤ 0.02 µM | ≤ 0.02 µM |
| COc1nc(Br)ccc1Oc1ncc(C(F)(F)F)cc1C(=O)Nc1cccc(S(C)(=N)=O)c1 (stereo not drawn) [Compound 1685] | ≤ 0.02 µM | ≤ 0.02 µM |
| COc1cc(C#N)ccc1Oc1ncc(Br)cc1C(=O)Nc1cccc(S(C)(=N)=O)c1 (stereo not drawn) [Compound 1686] | ≤ 0.02 µM | ≤ 0.02 µM |
| CC(C#N)Oc1cc(F)c(Oc2ncc(C(F)(F)F)cc2C(=O)Nc2cccc(C(N)=O)c2)cc1F (stereo not drawn) [Compound 1687] | 0.2 to 0.5 µM | 0.2 to 0.5 µM |

| SMILES | IC50 [1] | IC50 [2] |
| --- | --- | --- |
| CC(C#N)Oc1cc(F)c(Oc2ncc(C(F)(F)F)cc2C(=O)Nc2ccc(C(N)=O)cc2)cc1F (stereo not drawn) [Compound 1688] | 0.2 to 0.5 µM | 0.2 to 0.5 µM |
| CC(C#N)Oc1cc(F)c(Oc2ncc(C(F)(F)F)cc2C(=O)Nc2cccc(S(C)(=N)=O)c2)cc1F (stereo not drawn) [Compound 1689] | 0.04 to 0.2 µM | 0.04 to 0.2 µM |
| Cc1ccc(Oc2ncc(C(F)(F)F)cc2C(=O)Nc2cccc(S(C)(=N)=O)c2)c(OC(F)F)n1 (stereo not drawn) [Compound 1690] | ≤ 0.02 µM | ≤ 0.02 µM |
| Cc1ccc(Oc2ncc(C(F)(F)F)cc2C(=O)Nc2cccc(C(N)=O)c2)c(OC(F)F)n1 [Compound 1691] | 0.04 to 0.2 µM | 0.04 to 0.2 µM |
| N#Cc1cc(F)ccc1Oc1ncc(C(F)(F)F)cc1C(=O)Nc1cccc(C(N)=O)c1 [Compound 1692] | 0.04 to 0.2 µM | 0.04 to 0.2 µM |
| Cc1nc(C#N)ccc1Oc1ncc(C(F)(F)F)cc1C(=O)Nc1cccc(S(C)(=O)=O)c1 [Compound 1693] | ≤ 0.02 µM | ≤ 0.02 µM |
| Cc1cc(C#N)ncc1Oc1ncc(C(F)(F)F)cc1C(=O)Nc1cccc(S(C)(=O)=O)c1 [Compound 1694] | 0.2 to 0.5 µM | 0.2 to 0.5 µM |
| NC(=O)c1cccc(NC(=O)c2cc(C(F)(F)F)cnc2Oc2cnc(C(F)(F)F)nc2)c1 [Compound 1695] | 0.2 to 0.5 µM | 0.2 to 0.5 µM |
| CS(=N)(=O)c1cccc(NC(=O)c2cc(C(F)(F)F)cnc2Oc2cnc(C(F)(F)F)nc2)c1 (stereo not drawn) [Compound 1696] | 0.2 to 0.5 µM | 0.2 to 0.5 µM |
| Cc1c(C#N)ccc(Oc2ncc(C(F)(F)F)cc2C(=O)Nc2cccc(C(N)=O)c2)c1F [Compound 1697] | 0.02 to 0.04 µM | 0.02 to 0.04 µM |
| COc1ncc(Oc2ncc(C(F)(F)F)cc2C(=O)Nc2cccc(C(N)=O)c2)cc1F [Compound 1698] | 0.2 to 0.5 µM | 0.2 to 0.5 µM |
| COc1ncc(Oc2ncc(C(F)(F)F)cc2C(=O)Nc2cccc(S(C)(=N)=O)c2)cc1F (stereo not drawn) [Compound 1699] | 0.2 to 0.5 µM | 0.2 to 0.5 µM |
| Cc1nc(C#N)ccc1Oc1ncc(C(F)(F)F)cc1C(=O)Nc1cccc(C(N)=O)c1 [Compound 1700] | 0.2 to 0.5 µM | 0.2 to 0.5 µM |
| Cc1nc(C#N)ccc1Oc1ncc(C(F)(F)F)cc1C(=O)Nc1cccc(S(C)(=N)=O)c1 (stereo not drawn) [Compound 1701] | 0.02 to 0.04 µM | 0.02 to 0.04 µM |
| COc1cc(C#N)ccc1Oc1ncc(C(F)(F)F)cc1C(=O)Nc1ccc[n+]([O-])c1 [Compound 1702] | 0.04 to 0.2 µM | 0.04 to 0.2 µM |
| CS(=O)(=O)c1cccc(NC(=O)c2cc(C(F)(F)F)cnc2Oc2ccc(C#N)nc2)c1 [Compound 1703] | 0.2 to 0.5 µM | 0.2 to 0.5 µM |
| CC(C)Oc1ccc(Oc2ncc(C(F)(F)F)cc2C(=O)Nc2cccc(S(C)(=N)=O)c2)c(F)c1 (stereo not drawn) [Compound 1706] | 0.2 to 0.5 µM | 0.2 to 0.5 µM |
| CC(C)Oc1ccc(Oc2ncc(C(F)(F)F)cc2C(=O)Nc2cccc(S(C)(=N)=O)c2)c(F)c1F (stereo not drawn) [Compound 1707] | ≤ 0.02 µM | ≤ 0.02 µM |
| CC(C)Oc1ccc(Oc2ncc(C(F)(F)F)cc2C(=O)Nc2cccc(C(N)=O)c2)c(F)c1 [Compound 1708] | 0.2 to 0.5 µM | 0.2 to 0.5 µM |
| CC(C)Oc1ccc(Oc2ncc(C(F)(F)F)cc2C(=O)Nc2cccc(C(N)=O)c2)c(F)c1F [Compound 1709] | 0.02 to 0.04 µM | ≤ 0.02 µM |
| CC(C)Oc1ccc(Oc2ncc(C(F)(F)F)cc2C(=O)Nc2ccc(C(N)=O)cc2)c(F)c1 [Compound 1710] | 0.2 to 0.5 µM | 0.2 to 0.5 µM |
| CC(C)Oc1ccc(Oc2ncc(C(F)(F)F)cc2C(=O)Nc2ccc(C(N)=O)cc2)c(F)c1F [Compound 1711] | 0.02 to 0.04 µM | 0.02 to 0.04 µM |
